Tests used:
Format in all cases: in vivo, human
[1] = test system: drug naive patients with type 2 diabetes mellitus; assay: Double-blind first line therapy clinical study: hemoglobin A1c (HbA1c); conditions: for frequency of subjects achieving glycemic target of HbA1c<7%: following 20 weeks of double-blind therapy; for glycemic response for baseline HbA1c levels >9%: initial therapy
Method: The dosage strengths of fixed combination product evaluated included metformin 250 mg with glyburide 1.25 mg, and metformin 500 mg with glyburide 2.5 mg. Glycemic control was assessed using Hemoglobin A1c (HbA1c), the gold-standard measure of long-term glycemic control. Mean change from baseline in HbA1c following a 20 week treatment period (4 weeks stable once daily dose, 4 week titration and 12 weeks stable dose) were compared. The treatment phase continued for an additional 12 weeks to assess durability of efficacy. This study was a 34 week, multicenter, randomized, placebo-controlled, double-blind, parallel study with an optional long-term, open-label treatment phase. The primary outcome variable for efficacy was the change from baseline in HbA1c of the two combination therapies relative to placebo following 20 weeks of randomized treatment. 2. […] Therapeutic plasma glucose response will be defined as a FPG<126 mg/dL (based on current ADA guidelines for FPG). […] Patients were drug naive or had no oral antihyperglycemic therapy for the 2 months prior to screening. […] However, recruitment continued for up to 6 months to recruit up to a maximum of 150 patients per arm to provide additional safety information. The design included 3 periods as follows: Period B began the randomized, double-blind, parallel quadruple dummy treatment phase. Eligible patients were randomized to 1 of 5 study arms which included placebo, glyburide monotherapy, metformin monotherapy, and two different dose strengths of fixed combination metformin/glyburide product (Examples 1 and 2). Subjects were maintained on once daily dosing for a 4 week period so that the contribution of the individual components of the combination product can be assessed by short term glycemic parameters. Period C was the continuation of the randomized, double-blind treatment phase. Subjects were titrated for glycemic control over the first four weeks then dose was maintained for a 24 week stable dose treatment segment. Analysis for the primary outcome, the change from baseline in HbA1c of the two combination therapies (Examples 1 and 2) relative to placebo, was assessed at week 16 of Period C which was after 20 weeks of randomized, double-blind treatment. This was done at this time as there had been adequate time for stabilization of HbA1c and for safety reasons as it was anticipated that a high number of placebo treated patients may have had to discontinue randomized study medication due to insufficient glycemic control as treatment duration was extended. […] The study remained blinded and those subjects who discontinued randomized study drug due to lack of efficacy were eligible to begin the long-term, open-label treatment phase with fixed combination product. Following completion of the single-blind lead-in phase (Period A), qualifying subjects commenced therapy in the randomized, double-blind treatment phase (Period B). […] Following completion of the 4 week stable once daily dose phase (Period B) subjects continued the same randomized therapy in the 28 week titration/stable dose treatment phase (Period C). Study medication was titrated at visits Cl, C15 and C29. Medication was dosed with the first morning meal and with the evening meal. […] After the 4 week titration segment in Period C, subjects continued on a stable dose of study medication for the remainder of Period C.

[2] = test system: drug naive patients with type 2 diabetes mellitus; assay: Double-blind first line therapy clinical study: post-prandial glucose (PPG) and PPG excursion; conditions: for 2-hour postprandial glucose excursion from a fasting baseline: placebo 40.3 mg/dL; for decrease in post-prandial glucose excursion: week 20
Method: The term “post-prandial excursion” as employed herein refers to the difference between post-prandial glucose (PPG) and fasting plasma glucose (FPG). […] The dosage strengths of fixed combination product evaluated included metformin 250 mg with glyburide 1.25 mg, and metformin 500 mg with glyburide 2.5 mg. Glycemic control was assessed using Hemoglobin A1c (HbA1c), the gold-standard measure of long-term glycemic control. Mean change from baseline in HbA1c following a 20 week treatment period (4 weeks stable once daily dose, 4 week titration and 12 weeks stable dose) were compared. The treatment phase continued for an additional 12 weeks to assess durability of efficacy. This study was a 34 week, multicenter, randomized, placebo-controlled, double-blind, parallel study with an optional long-term, open-label treatment phase. […] 3. […] Patients were drug naive or had no oral antihyperglycemic therapy for the 2 months prior to screening. […] However, recruitment continued for up to 6 months to recruit up to a maximum of 150 patients per arm to provide additional safety information. The design included 3 periods as follows: Period B began the randomized, double-blind, parallel quadruple dummy treatment phase. Eligible patients were randomized to 1 of 5 study arms which included placebo, glyburide monotherapy, metformin monotherapy, and two different dose strengths of fixed combination metformin/glyburide product (Examples 1 and 2). Subjects were maintained on once daily dosing for a 4 week period so that the contribution of the individual components of the combination product can be assessed by short term glycemic parameters. Period C was the continuation of the randomized, double-blind treatment phase. Subjects were titrated for glycemic control over the first four weeks then dose was maintained for a 24 week stable dose treatment segment. Analysis for the primary outcome, the change from baseline in HbA1c of the two combination therapies (Examples 1 and 2) relative to placebo, was assessed at week 16 of Period C which was after 20 weeks of randomized, double-blind treatment. This was done at this time as there had been adequate time for stabilization of HbA1c and for safety reasons as it was anticipated that a high number of placebo treated patients may have had to discontinue randomized study medication due to insufficient glycemic control as treatment duration was extended. […] The study remained blinded and those subjects who discontinued randomized study drug due to lack of efficacy were eligible to begin the long-term, open-label treatment phase with fixed combination product. Following completion of the single-blind lead-in phase (Period A), qualifying subjects commenced therapy in the randomized, double-blind treatment phase (Period B). […] Following completion of the 4 week stable once daily dose phase (Period B) subjects continued the same randomized therapy in the 28 week titration/stable dose treatment phase (Period C). Study medication was titrated at visits Cl, C15 and C29. Medication was dosed with the first morning meal and with the evening meal. […] After the 4 week titration segment in Period C, subjects continued on a stable dose of study medication for the remainder of Period C.

[3] = test system: drug naive patients with type 2 diabetes mellitus; assay: Double-blind first line therapy clinical study: body weight and plasma lipid profile; conditions: as glycemic control improved
Description: This study was a 34 week, multicenter, randomized, placebo-controlled, double-blind, parallel study with an optional long-term, open-label treatment phase. […] Patients were drug naive or had no oral antihyperglycemic therapy for the 2 months prior to screening. […] However, recruitment continued for up to 6 months to recruit up to a maximum of 150 patients per arm to provide additional safety information. The design included 3 periods as follows: Period B began the randomized, double-blind, parallel quadruple dummy treatment phase. Eligible patients were randomized to 1 of 5 study arms which included placebo, glyburide monotherapy, metformin monotherapy, and two different dose strengths of fixed combination metformin/glyburide product (Examples 1 and 2). Subjects were maintained on once daily dosing for a 4 week period so that the contribution of the individual components of the combination product can be assessed by short term glycemic parameters. Period C was the continuation of the randomized, double-blind treatment phase. […] Analysis for the primary outcome, the change from baseline in HbA1c of the two combination therapies (Examples 1 and 2) relative to placebo, was assessed at week 16 of Period C which was after 20 weeks of randomized, double-blind treatment. […]

[4] = Week 20 of double-blind therapy
[5] = Week 32 of double-blind therapy

SMILES | mean HbA1c level [1, 4] [%] | mean HbA1c level [1, 5] [%] | frequency of subjects achieving glycemic target of HbA1c<7% [1] [%] | glycemic response for baseline HbA1c levels >9% [1] | 2-hour postprandial glucose excursion from a fasting baseline [2] [mg/dL] | decrease in post-prandial glucose excursion [2] | early weight gain [3] [kg] | postprandial glucose excursion lowering, comparison in words ([2]; evaluating the excursion rather than the absolute value)
COc1ccc(Cl)cc1C(=O)NCCc1ccc(S(=O)(=O)NC(=O)NC2CCCCC2)cc1 [glyburide] | 6.64 | 6.78 | 60 | plateauing of glycemic response | 38.2 | 6.8 | 2 | 
CN(C)C(=N)N=C(N)N [metformin] | 6.79 | 6.96 | 50 | plateauing of glycemic response | 29.5 | 15.2 |  | better postprandial glucose lowering than glyburide and placebo
